Like-named read-outs stand apart in the source and are kept apart here.
What was measured:
Gefäßmuskulatur = conditions: described in DE 32 32 462; cited from earlier work
Neuronen = test: Effect (hyperpolarising activity) on neurons; assay type: cell-based, Ratten
[1] = test system: MIPP-N1E-115-Neuroblastomlinie; test: Hyperpolarising activity in neuroblastoma cell line; assay type: cell-based; conditions: for hyperpolarisierende Wirkung: MIPP-N1E-115 neuroblastoma line
A10-Zellen = test: Activity on vascular tissue (A10 cells); assay type: cell-based; conditions: read-out: IC₅₀
ATP-abhängige K-Kanäle = test: Glyburide sensitivity of the hyperpolarising effect; assay type: cell-based; conditions: with glyburide
[2] = test system: Zellinie des glatten Muskels; test: Activity in a smooth muscle cell line; assay type: cell-based
[3] = test system: Neuronen vom Typ der Pyramidenzellen aus dem Hippocampus; test: Neuroprotection on single neurons of the central nervous system; assay type: cell-based, Ratten; conditions: single neurons from rat CNS; inhibition of raised calcium during long-term depolarisation

CCOc1ccccc1NC(=C[N+](=O)[O-])NC(C)C(C)(C)C (racemic) [racemische Gemisch, N-(2-Ethoxyphenyl)-N'-(1,2,2-trimethylpropyl)-2-nitroethen-1,1-diamin]
Wirkung auf die Gefäßmuskulatur (Gefäßmuskulatur): eine Wirkung auf die Gefäßmuskulatur ausübt

CCOc1ccccc1NC(=C[N+](=O)[O-])NC(C)C(C)(C)C (single isomer, unassigned; (+)) [Beispiel 2, (+)-N-(2-Ethoxyphenyl)-N'-(1,2,2-trimethylpropyl)-2-nitroethen-1,1-diamin]
Blockierung der Wirkung des (-)-Enantiomers auf Neuronen (Neuronen; (+)-enantiomer 1 µM against effect of 5 pM (-)-enantiomer): blockiert | EC50 (Neuronen; Neuron, in neurons, read-out: EC₅₀-Wert): 500 nM | Konzentration, bei der wirksam, als Vielfaches der Konzentration des (-)-Enantiomers (Neuronen; multiple of the 5 pM concentration of the (-)-enantiomer in neurons): > 10 000 -fach | hyperpolarisierende Wirkung ([1]; listed as (+)-Enantiomer): nicht auf das (+)-Enantiomer anspricht | IC50 (A10-Zellen; listed as (+)-Enantiomer): 15 nM | hyperpolarisierende Wirkung, Blockierbarkeit durch Glyburide (ATP-abhängige K-Kanäle; listed as (+)-Enantiomer): durch Glyburide inhibierbares Hyperpolarisierungsmittel

CCOc1ccccc1NC(=C[N+](=O)[O-])NC(C)C(C)(C)C (single isomer, unassigned; (-)) [Beispiel 1, (-)-N-(2-Ethoxyphenyl)-N'-(1,2,2-trimethylpropyl)-2-nitroethen-1,1-diamin]
IC50 (Neuronen; Neuron, in neurons, read-out: IC₅₀-Wert): 0.005 nM | hyperpolarisierende Wirkung ([1]; listed as (-)-Enantiomer): wirksam | EC50 ([1]; Neuroblastoma cell, newly found hyperpolarising activity not blocked by glyburide, read-out: EC₅₀): < 0.01 nM | IC50 (A10-Zellen; listed as (-)-Enantiomer): 250 nM | Wirksamkeit [2]: unwirksam | Neuroprotektion [3]: bemerkenswerte Neuroprotektion | hyperpolarisierende Wirkung, Blockierbarkeit durch Glyburide (ATP-abhängige K-Kanäle; listed as (-)-Enantiomer): durch Glyburide nicht blockiert

Reference: patent EP0561237A2, “Enantiomer, (-)-N-(2-ethoxyphenyl)-N'-(1,2,2-trimethylpropyl)-2-nitromethene-1,1-diamine, process for its preparation and its use” (BAYER AG, priority 1992, dated 1993)
